According to ChEMBL document CHEMBL1781913, “Design and synthesis of 3-alkyl-2-aryl-1,3-thiazinan-4-one derivatives as selective cyclooxygenase (COX-2) inhibitors” (Bioorg Med Chem Lett, 2009):

Molecular target: T1, Prostaglandin G/H synthase 1 (Ovis aries, UniProt P05979)
T1 sequence (P05979 whole entry): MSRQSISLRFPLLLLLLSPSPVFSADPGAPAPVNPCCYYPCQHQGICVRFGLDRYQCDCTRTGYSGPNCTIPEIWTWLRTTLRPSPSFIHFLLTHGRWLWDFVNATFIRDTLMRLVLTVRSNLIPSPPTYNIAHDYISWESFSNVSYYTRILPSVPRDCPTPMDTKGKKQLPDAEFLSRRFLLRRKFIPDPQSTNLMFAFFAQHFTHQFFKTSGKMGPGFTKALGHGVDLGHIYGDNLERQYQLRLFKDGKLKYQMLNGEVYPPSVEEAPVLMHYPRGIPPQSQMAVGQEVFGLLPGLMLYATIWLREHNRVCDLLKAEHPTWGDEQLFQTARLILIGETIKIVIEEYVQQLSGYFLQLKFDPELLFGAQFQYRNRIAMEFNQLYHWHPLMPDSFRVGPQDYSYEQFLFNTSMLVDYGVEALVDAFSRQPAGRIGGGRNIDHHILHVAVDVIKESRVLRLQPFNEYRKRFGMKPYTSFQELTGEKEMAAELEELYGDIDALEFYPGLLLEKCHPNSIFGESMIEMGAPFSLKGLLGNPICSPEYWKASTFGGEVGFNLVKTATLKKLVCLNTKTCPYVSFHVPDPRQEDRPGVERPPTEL
Assay: Inhibition of ovine COX1 by chemiluminescent assay

IC50 [µM]	SMILES
14.8	CCCCN1C(=O)CCSC1c1ccc(S(C)(=O)=O)cc1 (stereo not given)
17.2	CS(=O)(=O)c1ccc(C2SCCC(=O)N2Cc2ccccc2)cc1 (stereo not given)
16	CS(=O)(=O)c1ccc(C2SCCC(=O)N2CCc2ccccc2)cc1 (stereo not given)

Further lines, the molecule ahead of its results:

SMILES	IC50 [µM]
CCCN1C(=O)CCSC1c1ccc(S(C)(=O)=O)cc1 (stereo not given)	14.1
CCCCCN1C(=O)CCSC1c1ccc(S(C)(=O)=O)cc1 (stereo not given)	14.9
